PubChem BioAssay (NCI)
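In this assay, cells in 96-well plates receive the compound at five concentrations for 48 hours. Endpoints are linearly interpolated between the surrounding concentrations. TGI: total growth inhibition.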

Experiments:
Assay in all cases: NCI-60 cell line screen, 48 h
786-0 renal = test system: 786-0 renal
A498 renal = test system: A498 renal
A549 NSCLC = test system: A549 NSCLC
ACHN renal = test system: ACHN renal
BT-549 breast = test system: BT-549 breast
CAKI-1 renal = test system: CAKI-1 renal
CCRF-CEM leukemia = test system: CCRF-CEM leukemia
COLO 205 colon = test system: COLO 205 colon
DU-145 prostate = test system: DU-145 prostate
HCC-2998 colon = test system: HCC-2998 colon
HCT-116 colon = test system: HCT-116 colon
HCT-15 colon = test system: HCT-15 colon
HL-60(TB) leukemia = test system: HL-60(TB) leukemia
HOP-62 NSCLC = test system: HOP-62 NSCLC
HOP-92 NSCLC = test system: HOP-92 NSCLC
HS 578T breast = test system: HS 578T breast
HT29 colon = test system: HT29 colon
IGROV1 ovarian = test system: IGROV1 ovarian
K-562 leukemia = test system: K-562 leukemia
KM12 colon = test system: KM12 colon
LOX IMVI melanoma = test system: LOX IMVI melanoma
M14 melanoma = test system: M14 melanoma
MALME-3M melanoma = test system: MALME-3M melanoma
MCF7 breast = test system: MCF7 breast
MDA-MB-231 breast = test system: MDA-MB-231 breast
MDA-MB-435 = test system: MDA-MB-435
MDA-N = test system: MDA-N
MOLT-4 leukemia = test system: MOLT-4 leukemia
NCI-H23 lung = test system: NCI-H23 lung
NCI-H460 lung = test system: NCI-H460 lung
NCI-H522 lung = test system: NCI-H522 lung
NCI/ADR-RES ovarian = test system: NCI/ADR-RES ovarian
OVCAR-3 ovarian = test system: OVCAR-3 ovarian
OVCAR-4 ovarian = test system: OVCAR-4 ovarian
OVCAR-5 ovarian = test system: OVCAR-5 ovarian
OVCAR-8 ovarian = test system: OVCAR-8 ovarian
PC-3 prostate = test system: PC-3 prostate
RPMI-8226 leukemia = test system: RPMI-8226 leukemia
SF-268 CNS = test system: SF-268 CNS
SF-295 CNS = test system: SF-295 CNS
SF-539 CNS = test system: SF-539 CNS
SK-MEL-2 melanoma = test system: SK-MEL-2 melanoma
SK-MEL-28 melanoma = test system: SK-MEL-28 melanoma
SK-MEL-5 melanoma = test system: SK-MEL-5 melanoma
SK-OV-3 ovarian = test system: SK-OV-3 ovarian
SN12C renal = test system: SN12C renal
SNB-19 CNS = test system: SNB-19 CNS
SNB-75 CNS = test system: SNB-75 CNS
SR leukemia = test system: SR leukemia
SW-620 colon = test system: SW-620 colon
T-47D breast = test system: T-47D breast
TK-10 renal = test system: TK-10 renal
U251 CNS = test system: U251 CNS
UACC-257 melanoma = test system: UACC-257 melanoma
UACC-62 melanoma = test system: UACC-62 melanoma
UO-31 renal = test system: UO-31 renal
EKVX NSCLC = test system: EKVX NSCLC
NCI-H226 lung = test system: NCI-H226 lung
RXF 393 renal = test system: RXF 393 renal

For `COc1ccc([N+](=O)[O-])c2c(NCCCN(C)C)c(C)c(C)nc12`, the TGI (786-0 renal) was over 100 µM, the TGI (A498 renal) was over 100 µM and the TGI (A549 NSCLC) was over 100 µM. The TGI (ACHN renal) was over 100 µM, the TGI (BT-549 breast) was over 100 µM and the TGI (CAKI-1 renal) was over 100 µM. It also gave a TGI (CCRF-CEM leukemia) of over 100 µM, a TGI (COLO 205 colon) of over 100 µM and a TGI (DU-145 prostate) of over 100 µM. The TGI (HCC-2998 colon) was over 100 µM, the TGI (HCT-116 colon) was over 100 µM and the TGI (HCT-15 colon) was over 100 µM. It also gave a TGI (HL-60(TB) leukemia) of over 100 µM, a TGI (HOP-62 NSCLC) of over 100 µM and a TGI (HOP-92 NSCLC) of over 100 µM. It also gave a TGI (HS 578T breast) of over 100 µM, a TGI (HT29 colon) of over 100 µM and a TGI (IGROV1 ovarian) of over 100 µM. It also gave a TGI (K-562 leukemia) of over 100 µM, a TGI (KM12 colon) of over 100 µM and a TGI (LOX IMVI melanoma) of over 100 µM. The TGI (M14 melanoma) was over 100 µM, the TGI (MALME-3M melanoma) was over 100 µM and the TGI (MCF7 breast) was over 100 µM. It also gave a TGI (MDA-MB-231 breast) of over 100 µM, a TGI (MDA-MB-435) of over 100 µM and a TGI (MDA-N) of over 100 µM. For the same molecule, the TGI (MOLT-4 leukemia) was over 100 µM, the TGI (NCI-H23 lung) was over 100 µM and the TGI (NCI-H460 lung) was over 100 µM. For the same molecule, the TGI (NCI-H522 lung) was over 100 µM, the TGI (NCI/ADR-RES ovarian) was over 100 µM and the TGI (OVCAR-3 ovarian) was over 100 µM. For the same molecule, the TGI (OVCAR-4 ovarian) was 63.5 µM, the TGI (OVCAR-5 ovarian) was over 100 µM and the TGI (OVCAR-8 ovarian) was over 100 µM. It also gave a TGI (PC-3 prostate) of over 100 µM, a TGI (RPMI-8226 leukemia) of over 100 µM and a TGI (SF-268 CNS) of over 100 µM. The TGI (SF-295 CNS) was over 100 µM, the TGI (SF-539 CNS) was over 100 µM and the TGI (SK-MEL-2 melanoma) was over 100 µM. For the same molecule, the TGI (SK-MEL-28 melanoma) was over 100 µM, the TGI (SK-MEL-5 melanoma) was over 100 µM and the TGI (SK-OV-3 ovarian) was over 100 µM. It also gave a TGI (SN12C renal) of over 100 µM, a TGI (SNB-19 CNS) of over 100 µM and a TGI (SNB-75 CNS) of over 100 µM. It also gave a TGI (SR leukemia) of 56.6 µM, a TGI (SW-620 colon) of over 100 µM and a TGI (T-47D breast) of over 100 µM. For the same molecule, the TGI (TK-10 renal) was over 100 µM, the TGI (U251 CNS) was over 100 µM and the TGI (UACC-257 melanoma) was over 100 µM. The TGI (UACC-62 melanoma) was over 100 µM and the TGI (UO-31 renal) was over 100 µM.

`COc1cc(C[C@@]2(C)[C@@H]3CCC[C@H](CO)[C@@]3(C)CC[C@@H]2C)c(Cl)c(OC)c1` gave a TGI (786-0 renal) of 29.1 µM, a TGI (A549 NSCLC) of 29.6 µM and a TGI (ACHN renal) of 29.4 µM. It also gave a TGI (BT-549 breast) of 33.8 µM, a TGI (CAKI-1 renal) of 31.1 µM and a TGI (CCRF-CEM leukemia) of over 100 µM. The TGI (COLO 205 colon) was 30.2 µM, the TGI (DU-145 prostate) was 30 µM and the TGI (EKVX NSCLC) was 27.5 µM. It also gave a TGI (HCC-2998 colon) of 29.8 µM, a TGI (HCT-116 colon) of 24.7 µM and a TGI (HCT-15 colon) of 34.1 µM. For the same molecule, the TGI (HL-60(TB) leukemia) was 47.3 µM, the TGI (HOP-62 NSCLC) was 31.6 µM and the TGI (HOP-92 NSCLC) was 30.5 µM. It also gave a TGI (HS 578T breast) of 47.5 µM, a TGI (HT29 colon) of 26 µM and a TGI (IGROV1 ovarian) of 29.1 µM. The TGI (K-562 leukemia) was 53 µM, the TGI (KM12 colon) was 37.8 µM and the TGI (LOX IMVI melanoma) was 32.9 µM. The TGI (M14 melanoma) was 36.8 µM, the TGI (MALME-3M melanoma) was 32 µM and the TGI (MCF7 breast) was 29.8 µM. For the same molecule, the TGI (MDA-MB-231 breast) was 32.3 µM, the TGI (MDA-MB-435) was 27.1 µM and the TGI (MDA-N) was 30.1 µM. The TGI (MOLT-4 leukemia) was 44.6 µM, the TGI (NCI-H226 lung) was 32.5 µM and the TGI (NCI-H23 lung) was 37.2 µM. The TGI (NCI-H460 lung) was 36.3 µM, the TGI (NCI-H522 lung) was 28.9 µM and the TGI (NCI/ADR-RES ovarian) was 31.3 µM. The TGI (OVCAR-3 ovarian) was 28.8 µM, the TGI (OVCAR-4 ovarian) was 33.3 µM and the TGI (OVCAR-5 ovarian) was 32.9 µM. It also gave a TGI (OVCAR-8 ovarian) of 31.7 µM, a TGI (PC-3 prostate) of 27.2 µM and a TGI (RPMI-8226 leukemia) of 76.2 µM. The TGI (RXF 393 renal) was 24.7 µM, the TGI (SF-268 CNS) was 30.8 µM and the TGI (SF-295 CNS) was 29.9 µM. For the same molecule, the TGI (SF-539 CNS) was 29.4 µM, the TGI (SK-MEL-2 melanoma) was 33.5 µM and the TGI (SK-MEL-28 melanoma) was 60.9 µM. It also gave a TGI (SK-MEL-5 melanoma) of 31.8 µM, a TGI (SK-OV-3 ovarian) of 31.3 µM and a TGI (SN12C renal) of 30 µM. It also gave a TGI (SNB-19 CNS) of 33.8 µM, a TGI (SNB-75 CNS) of 31.9 µM and a TGI (SR leukemia) of 48.5 µM. For the same molecule, the TGI (SW-620 colon) was 84.6 µM, the TGI (T-47D breast) was 22.9 µM and the TGI (TK-10 renal) was 35.1 µM. It also gave a TGI (U251 CNS) of 29 µM, a TGI (UACC-257 melanoma) of 35.2 µM and a TGI (UACC-62 melanoma) of 28.9 µM. The TGI (UO-31 renal) was 31.5 µM.
